Tests used:
Experiment in all cases: relative viability (nuclei count vs DMSO), 5 days (fraction); higher = more cells survive
AGI-6780 + Palbociclib = compound: O=C(Nc1cccc(C(F)(F)F)c1)Nc1cc(S(=O)(=O)NC2CC2)ccc1-c1ccsc1 [AGI-6780] + CC(=O)c1c(C)c2cnc(Nc3ccc(N4CCNCC4)cn3)nc2n(C2CCCC2)c1=O [Palbociclib] (partner 0.5 µM)
Summary of the method: (§1)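 Values are medians from duplicate plates. Each reflects relative viability, defined as the nuclei count of treated wells over that of vehicle wells. Lung cancer cell lines in 1536-well plates were pin-tool dosed one day after seeding with one drug alone or with a fixed anchor-drug dose plus five library-drug doses (not always all listed) in √10 steps, then fixed, stained and imaged at 4× after 5 days.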

AGI-6780 + Bortezomib = compound: O=C(Nc1cccc(C(F)(F)F)c1)Nc1cc(S(=O)(=O)NC2CC2)ccc1-c1ccsc1 [AGI-6780] + CC(C)C[C@H](NC(=O)[C@H](Cc1ccccc1)NC(=O)c1cnccn1)B(O)O [Bortezomib] (partner 0.002 µM)
Summary of the method: as §1

AGI-6780 + Foretinib = compound: O=C(Nc1cccc(C(F)(F)F)c1)Nc1cc(S(=O)(=O)NC2CC2)ccc1-c1ccsc1 [AGI-6780] + COc1cc2c(Oc3ccc(NC(=O)C4(C(=O)Nc5ccc(F)cc5)CC4)cc3F)ccnc2cc1OCCCN1CCOCC1 [Foretinib] (partner 0.25 µM)
Summary of the method: as §1

AGI-6780 + Pictilisib = compound: O=C(Nc1cccc(C(F)(F)F)c1)Nc1cc(S(=O)(=O)NC2CC2)ccc1-c1ccsc1 [AGI-6780] + CS(=O)(=O)N1CCN(Cc2cc3nc(-c4cccc5[nH]ncc45)nc(N4CCOCC4)c3s2)CC1 [Pictilisib] (partner 1 µM)
Summary of the method: as §1

Cell Line | relative viability (AGI-6780 + Palbociclib; first compound 0.08 µM) | relative viability (AGI-6780 + Palbociclib; first compound 0.253 µM) | relative viability (AGI-6780 + Palbociclib; first compound 0.8 µM) | relative viability (AGI-6780 + Palbociclib; first compound 2.53 µM) | relative viability (AGI-6780 + Palbociclib; first compound 8 µM) | relative viability (AGI-6780 + Bortezomib; first compound 0.08 µM) | relative viability (AGI-6780 + Bortezomib; first compound 0.253 µM) | relative viability (AGI-6780 + Bortezomib; first compound 0.8 µM) | relative viability (AGI-6780 + Bortezomib; first compound 2.53 µM) | relative viability (AGI-6780 + Bortezomib; first compound 8 µM) | relative viability (AGI-6780 + Foretinib; first compound 0.08 µM) | relative viability (AGI-6780 + Foretinib; first compound 0.253 µM) | relative viability (AGI-6780 + Foretinib; first compound 0.8 µM) | relative viability (AGI-6780 + Foretinib; first compound 2.53 µM) | relative viability (AGI-6780 + Foretinib; first compound 8 µM) | relative viability (AGI-6780 + Pictilisib; first compound 0.08 µM) | relative viability (AGI-6780 + Pictilisib; first compound 0.253 µM) | relative viability (AGI-6780 + Pictilisib; first compound 0.8 µM) | relative viability (AGI-6780 + Pictilisib; first compound 2.53 µM) | relative viability (AGI-6780 + Pictilisib; first compound 8 µM)
201T | 0.359 | 0.367 | 0.353 | 0.329 | 0.344 | 1.11 | 0.981 | 1.02 | 1.1 | 1.1 | 1.09 | 1.08 | 1.2 | 1.09 | 1.05 | 0.699 | 0.735 | 0.686 | 0.647 | 0.702
A-427 |  | 0.504 | 0.548 | 0.462 | 0.491 | 1.13 | 1.02 | 1.06 | 0.917 | 0.991 | 0.991 | 0.951 | 1.15 | 0.825 | 1.19 | 0.702 | 0.753 | 0.653 | 0.524 | 0.854
ABC-1 |  | 0.666 | 0.846 | 0.608 | 0.905 | 0.295 | 0.35 | 0.335 | 0.262 | 0.378 | 1.13 | 1.17 | 1.11 | 1.07 | 0.941 | 0.86 | 0.865 | 1.05 | 0.864 | 0.756
BEN | 0.488 | 0.429 | 0.457 |  | 0.502 | 0.657 | 0.813 | 0.852 |  | 0.754 | 0.481 | 0.654 | 0.662 | 0.533 | 0.619 | 0.527 | 0.629 | 0.586 |  | 0.521
CAL-12T | 0.407 | 0.465 | 0.651 | 0.46 | 0.367 |  | 1.05 | 0.944 | 1.31 | 1.06 | 1 | 1.15 | 1.13 | 1.34 | 1.11 |  | 0.575 | 0.531 | 0.717 | 0.644
COR-L23 | 0.322 | 0.257 | 0.298 | 0.277 | 0.329 | 1.05 | 0.96 | 0.814 | 0.935 | 0.851 | 1.03 | 0.948 | 0.883 | 1.06 | 0.837 | 0.772 | 0.755 | 0.702 | 0.66 | 0.827
COR-L 105 | 0.395 | 0.301 | 0.417 | 0.371 | 0.37 | 0.886 | 0.896 | 0.993 | 0.766 | 0.813 | 1.09 | 0.922 | 0.962 | 1.25 | 0.981 | 0.482 | 0.393 | 0.463 | 0.463 | 0.39
Calu-6 |  |  |  |  |  | 1.12 | 0.976 | 1.02 | 1.12 | 0.972 | 0.88 | 0.871 | 0.96 | 0.89 | 0.885 | 0.996 | 0.891 | 0.929 | 0.908 | 0.937
ChaGo-K-1 | 0.951 | 0.968 | 0.921 | 0.921 | 0.898 | 0.772 | 1.02 | 1.08 | 1.01 | 0.932 | 0.986 | 0.977 | 0.946 | 0.751 | 0.948 | 0.593 | 0.809 | 0.938 | 0.552 | 0.704
EBC-1 |  |  |  |  |  | 0.781 | 0.566 | 0.485 | 0.601 | 0.529 | 0.104 | 0.105 | 0.106 | 0.11 | 0.104 | 0.388 | 0.337 | 0.343 | 0.379 | 0.347
EKVX | 0.411 | 0.368 | 0.368 | 0.352 | 0.406 | 1.12 | 1.07 | 1.05 | 0.697 | 0.958 | 0.684 | 0.91 | 0.756 | 0.399 | 0.849 | 0.445 | 0.437 | 0.495 | 0.395 | 0.495
EMC-BAC-2 |  | 0.535 | 0.487 | 0.437 | 0.543 | 1.14 | 1.03 | 1.1 | 0.856 | 1.14 | 1.05 | 1.04 | 0.961 | 0.842 | 1.18 | 0.579 | 0.575 | 0.602 | 0.395 | 0.617
EPLC-272H | 0.318 | 0.356 | 0.318 | 0.337 | 0.329 | 0.905 | 1.03 | 0.901 | 0.766 | 1.03 |  | 0.762 | 0.891 | 0.489 | 0.619 | 0.39 | 0.33 | 0.257 | 0.344 | 0.318
H3255 | 0.292 | 0.304 | 0.307 | 0.315 | 0.31 | 0.572 | 0.739 | 0.836 | 0.69 | 0.865 | 0.928 | 0.798 | 1.03 | 0.909 | 0.85 | 0.475 | 0.436 | 0.512 | 0.457 | 0.443
HARA | 0.235 | 0.271 | 0.167 | 0.257 | 0.278 | 1.24 | 1.09 | 0.948 | 1.19 | 1.16 | 0.957 | 0.864 | 0.963 | 0.83 | 0.91 | 0.379 | 0.406 | 0.54 | 0.587 | 0.371
HCC-15 | 0.787 | 0.649 | 0.689 | 0.718 | 0.728 | 1.1 | 0.993 | 1.06 | 1.04 | 1.02 | 1.1 | 1.03 | 1.1 | 0.871 | 0.968 | 0.88 | 0.82 | 0.834 | 0.594 | 0.801
HCC-44 | 0.969 | 0.978 | 0.959 | 0.99 | 0.966 | 0.927 | 0.887 | 0.884 | 0.843 | 0.928 |  |  |  |  |  | 0.745 | 0.72 | 0.649 | 0.496 | 0.486
